Results reported in article PMC9783881, “Synthesis and Preclinical Evaluation of Small-Molecule Prostate-Specific Membrane Antigen-Targeted Abiraterone Conjugate” (Molecules, 2022).

Assays:
[1] = Water solubility (comparison in words); type: physicochemical; conditions: compared to AbiAc
[2] = test system: 22Rv1 prostate cancer subcutaneous xenograft; experiment: 22Rv1 human tumor xenograft mouse model; type: in vivo, Balb/c nude mice; conditions: 22Rv1 xenografts
Procedure: Male, 6–8 week old Balb/c nude mice with body weight range of 20–22 g were purchased from N.N.Blokhin Cancer Research Center. Animals were kept in plastic cages equipped with lids with feeding recesses, air filters, and feed dividers at 2–3 mice per cage.
Mice were injected subcutaneously in the right and left flanks with 1 × 10^7 22Rv1 cells in RPMI-1640 medium 0.2 mL supplemented with 0.2 mL Corning Matrigel® matrix (Corning, NY, USA) in a total volume of 400 μL. When the average size of the tumors reached ~100 mm^3, mice were randomly divided into three groups, with five mice per group, including a vehicle group (1% starch paste) and two treatment groups: PSMA-Abi 500 mg/kg/day and AbiAc 200 mg/kg/day for 14 days. The drugs were administered orally, and all compounds were formulated with 1% starch paste. Following the treatment, the primary tumor size was measured twice weekly with a micro-caliper, and the tumor volume was calculated using the formula: Volume = π/6 × length × width × height. Treatment outcome was based on percentage of tumor growth inhibition (%TGI), defined as the percent difference between the median tumor volumes (MTVs) of mice in the treated and control groups. Percent TGI was calculated using the following formula: %TGI = [1 − (MTV treatment group/MTV control)] 100%. All data are presented as means ± SD. Statistical analyses of in vivo research were performed using SPSS Statistics V. 22.0, comparing continuous variables by non-parametrical Mann–Whitney U. * p ≤ 0.05 was considered as significant in comparison with the control.

cytochrome P450 2C9 = target: T1, cytochrome P450 2C9 (Homo sapiens, UniProt P11712); experiment: Cytochrome inhibition in human liver microsomes, 2C9; type: in vitro ADME; conditions: substrate Tolbutamide, read-out: IC50, 2C9 (PSMA-Abi)
T1 construct: isoenzyme activity in human liver microsomes using conventional sample substrates and HPLC-MS/MS detection; from tissue; host or cells: human liver microsomes
T1 sequence (P11712 whole entry): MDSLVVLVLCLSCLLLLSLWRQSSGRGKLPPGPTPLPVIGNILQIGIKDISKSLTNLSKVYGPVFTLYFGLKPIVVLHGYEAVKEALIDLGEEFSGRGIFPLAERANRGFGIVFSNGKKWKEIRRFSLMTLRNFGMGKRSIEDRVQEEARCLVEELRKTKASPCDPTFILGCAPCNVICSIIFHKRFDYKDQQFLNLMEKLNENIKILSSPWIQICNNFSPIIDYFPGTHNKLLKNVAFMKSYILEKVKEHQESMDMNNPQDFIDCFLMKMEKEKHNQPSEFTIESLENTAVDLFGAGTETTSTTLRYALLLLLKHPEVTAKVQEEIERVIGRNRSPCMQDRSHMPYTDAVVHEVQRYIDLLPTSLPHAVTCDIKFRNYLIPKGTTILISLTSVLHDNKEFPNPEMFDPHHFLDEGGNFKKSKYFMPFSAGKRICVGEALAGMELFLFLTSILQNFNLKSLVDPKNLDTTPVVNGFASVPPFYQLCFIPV
From the text: (§1) To assess the effect of drugs on liver cytochrome activity in drug development, test systems with recombinant enzymes and fluorescent substrates as well as microsomes with metabolic substrates and HPLC-MS/MS analysis were used. The present study aimed to investigate the effect of targeted delivery drugs specific to malignant prostate cells on cytochrome P450 (CYP450) isoenzyme activity in human liver microsomes using conventional sample substrates and HPLC-MS/MS detection. Detailed methodological parameters are described in the Supplementary Material.

cytochrome P450 1A2 = target: T2, cytochrome P450 1A2 (Homo sapiens, UniProt P05177); experiment: Cytochrome inhibition in human liver microsomes, 1A2; type: in vitro ADME; conditions: substrate Phenacetin, read-out: IC50, 1A2 (PSMA-Abi)
T2 construct: isoenzyme activity in human liver microsomes using conventional sample substrates and HPLC-MS/MS detection; from tissue; host or cells: human liver microsomes
T2 sequence (P05177 1-516): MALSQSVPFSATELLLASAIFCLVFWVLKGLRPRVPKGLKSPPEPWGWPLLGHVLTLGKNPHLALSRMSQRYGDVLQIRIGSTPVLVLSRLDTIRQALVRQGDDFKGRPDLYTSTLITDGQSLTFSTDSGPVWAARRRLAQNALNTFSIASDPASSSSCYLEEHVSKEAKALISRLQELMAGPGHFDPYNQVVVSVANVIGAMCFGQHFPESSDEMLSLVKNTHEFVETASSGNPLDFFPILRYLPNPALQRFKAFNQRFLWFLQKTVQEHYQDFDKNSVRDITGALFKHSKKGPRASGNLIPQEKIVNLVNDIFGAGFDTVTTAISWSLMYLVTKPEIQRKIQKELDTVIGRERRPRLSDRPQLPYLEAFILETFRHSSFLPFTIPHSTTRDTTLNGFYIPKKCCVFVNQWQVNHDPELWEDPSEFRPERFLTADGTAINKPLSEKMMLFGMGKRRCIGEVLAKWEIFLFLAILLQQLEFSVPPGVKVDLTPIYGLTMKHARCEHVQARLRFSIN
From the text: as §1

cytochrome P450 2D6 = target: T3, cytochrome P450 2D6 (Homo sapiens, UniProt P10635); experiment: Cytochrome inhibition in human liver microsomes, 2D6; type: in vitro ADME; conditions: substrate Dextromethorphan, read-out: IC50, 2D6 (PSMA-Abi)
T3 construct: isoenzyme activity in human liver microsomes using conventional sample substrates and HPLC-MS/MS detection; from tissue; host or cells: human liver microsomes
T3 sequence (P10635 whole entry): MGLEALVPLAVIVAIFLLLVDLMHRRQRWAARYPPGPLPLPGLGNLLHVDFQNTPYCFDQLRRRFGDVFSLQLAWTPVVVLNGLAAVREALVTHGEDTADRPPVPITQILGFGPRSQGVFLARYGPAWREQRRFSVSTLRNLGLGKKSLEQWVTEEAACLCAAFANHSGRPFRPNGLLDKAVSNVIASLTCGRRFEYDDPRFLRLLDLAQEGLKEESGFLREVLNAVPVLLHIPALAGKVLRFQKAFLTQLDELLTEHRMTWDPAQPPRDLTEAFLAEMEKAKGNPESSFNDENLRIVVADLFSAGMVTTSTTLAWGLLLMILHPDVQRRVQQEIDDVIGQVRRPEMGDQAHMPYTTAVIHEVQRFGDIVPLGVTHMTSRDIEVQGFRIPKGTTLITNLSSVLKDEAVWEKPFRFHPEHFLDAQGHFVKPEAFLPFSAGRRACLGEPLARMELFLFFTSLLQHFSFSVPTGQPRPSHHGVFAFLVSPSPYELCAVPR
From the text: as §1

[3] = oral x14, PSMA-Abi 500, AbiAc 200 mg/kg/day

C[C@]12CC[C@H](OC(=O)CCCc3cn(CCCNC(=O)[C@H](Cc4ccc(O)cc4)NC(=O)[C@H](Cc4ccccc4)NC(=O)CCC(=O)NCCCCCC(=O)N(CCCC[C@H](NC(=O)N[C@@H](CCC(=O)O)C(=O)O)C(=O)O)Cc4cccc(Cl)c4)nn3)CC1=CC[C@@H]1[C@@H]2CC[C@]2(C)C(c3cccnc3)=CC[C@@H]12 [PSMA-Abi]
water solubility [1]: better water solubility compared to the AbiAc | TGImax (tumor growth inhibition) ([2]; oral x14, PSMA-Abi 500 mg/kg/day, AbiAc 200 mg/kg/day, after the end of treatment): 65% | TGI, day 15 after start of the treatment [2, 3]: 65% | TGI, day 18 after start of the treatment [2, 3]: 63% | TGI, day 22 after start of the treatment [2, 3]: 60% | Tumor volume (M+SE), day 15 [2, 3]: 876±197 mm3 | Tumor volume (M+SE), day 18 [2, 3]: 1063±195 mm3 | Tumor volume (M+SE), day 22 [2, 3]: 1294±201 mm3 | Tumor volume (M+SE), day 0 ([2]; start of treatment): 110±18 mm3 | IC50 (cytochrome P450 2C9): > 25 µM | IC50 (cytochrome P450 1A2): 4.5 ± 1.1 µM | IC50 (cytochrome P450 2D6): 17 ± 1 µM
